Test results: patent US20200031873A1, “REPURPOSING CELL PENETRATING PEPTIDES AND THEIR NOVEL DERIVATIVES AND IOPROMIDE AND IODO-ARYL CARBONATES FOR TREATMENT OF SENESCENCE-RELATED DISEASES AND DISORDERS” (Eternans Limited, priority 2018, published 2020)
“Also recorded” adds a separate entry of the source. Where a SMILES comes first, the peptide text is derived from it.

Columns and labels:
[1] = test system: BALB/c mice; experiment: Acute Sytemic Toxicity Test (ISO 10993-11); assay type: in vivo; design: hematological parameters, AST, ALT, ALP levels and gross pathology: dose or concentration left out as unconfirmed
Procedure: Senolytic Peptides were evaluated for toxicity according to Acute Sytemic Toxicity Test (ISO 10993-11). This study was performed in strict accordance with the protocol approved by the TUBITAK-MAM Animal Ethics Committee. All the mice used in this study were of a BALB/c background at 8-12 weeks of age. All mice were kept in group housing until the start of the experiment after which they were placed in separate cages (5 mice per cage). […] Control and Senolytic Peptide (SEQ ID NO: 2) injected mice were sacrificed 24 hours later for pathological examination. […] Blood samples were subsequently collected for determination and analysis of hematological and biochemical parameters. Plasma alanine aminotransferase (ALT), aspartate aminotransferase (AST), alkaline phosphatase (ALP) activities and blood urea, glucose, triglyceride levels were determined, inter alia, full hematological parameters.

[2] = test system: senescent and non-senescent WI-38 fibroblasts; assay type: cell-based, human; settings: total doses 0 to 100 μM on 3 consecutive days, read after 7 days, listed as SEQ ID NO: 11
Procedure: WI-38 cells (ATCC # CCL-75, a diploid primary human fibroblast adherent cell line derived from fetal lung tissue) were treated with a chemotherapy agent, 100 nM Doxorubicin twice every other day to induce senescence. […] Later these cells were used for experiments comparing them to their non-Doxorubicin (non-senescent) treated counterparts. Senescent and non-senescent WI-38 fibroblasts were plated for XTT viability assays. 7000 senescent (obtained as described above) and 2000 non-senescent WI-38 fibroblasts were plated in 96-well plates incubated. The cells were treated with mock (PBS) or the Senolytic Peptide (SEQ ID NO: 11) at total doses ranging from 0 to 100 μM. The mock and peptide treatments were carried out for 3 consecutive days (24, 48 and 72 hours) after plating. After treatment period, the cells were incubated for 7 days until XTT-based viability was analyzed according to the manufacturer's instructions. […] The Senolytic Peptide (SEQ ID NO: 2) was ordered from Chinese Peptide Company with TFA removal.

Compound	toxicity to the physical appearance of the mice ([1]; intravenous single injection, 1, 10, 50 and 100 mg/kg, within 24 hours)	hematological parameters, AST, ALT, ALP levels and gross pathology ([1]; intravenous single injection, 24 hours, even at higher doses)	viability of senescent vs non-senescent cells (XTT) [2]
N=C(N)NCCC[C@H](NC(=O)[C@H](CCCNC(=N)N)NC(=O)[C@H](CCCNC(=N)N)NC(=O)[C@H](CCC(N)=O)NC(=O)[C@H](CCCNC(=N)N)NC(=O)[C@H](CCCNC(=N)N)NC(=O)[C@H](CCCCN)NC(=O)[C@H](CCCCN)NC(=O)[C@H](CCCNC(=N)N)NC(=O)CNC(=O)[C@H](Cc1ccc(O)cc1)NC(=O)[C@H](CCCNC(=N)N)NC(=O)[C@H](CCCNC(=N)N)NC(=O)[C@H](CCCNC(=N)N)NC(=O)[C@H](CCC(N)=O)NC(=O)[C@H](CCCNC(=N)N)NC(=O)[C@H](CCCNC(=N)N)NC(=O)[C@H](CCCCN)NC(=O)[C@H](CCCCN)NC(=O)[C@H](CCCNC(=N)N)NC(=O)CNC(=O)[C@H](Cc1ccc(O)cc1)NC(=O)[C@H](CCCNC(=N)N)NC(=O)[C@H](CCCNC(=N)N)NC(=O)[C@H](CCCNC(=N)N)NC(=O)[C@H](CCC(N)=O)NC(=O)[C@H](CCCNC(=N)N)NC(=O)[C@H](CCCNC(=N)N)NC(=O)[C@H](CCCCN)NC(=O)[C@H](CCCCN)NC(=O)[C@H](CCCNC(=N)N)NC(=O)CNC(=O)[C@@H](N)Cc1ccc(O)cc1)C(=O)O [ID 2] (H-YGRKKRRQRRRYGRKKRRQRRRYGRKKRRQRRR-OH; N-terminus and C-terminus assumed)	No toxicity to the physical appearance of the mice was observed	no toxicity	–
TRQARRNRRRRWRERQR [ID 11]	–	–	selective decrease in the viability of senescent cells but not non-senescent cells; also recorded: selectively decreased the viability of senescent cells but not non-senescent cells
